Data from US4994448A, “Condensed quinolinium and isoquinolinium derivatives” (Egis Gyogyszergyar, priority 1987, dated 1991).
Read-outs that look alike come from different tables or passages of the source.

Columns and labels:
[1] = Acute toxicity on mice; details: mouse, in vivo, po
Experimental: White mice belonging to the CFLP strain (body weight 18-22 g; both male and female) are used, 10 animals for each dose. The test compound is administered orally in a volumen of 20 ml/kg. After treatment the animals are observed for a period of 7 days. The animals are kept in a plastic cage, at room temperature. The animals get tap water and standard mouse fodder ad libitum.

[2] = tested on: writhing (acetic acid); test: Analgesic effect, acetic acid writhing test on mice; format: in vivo; details: for ED50: Mus musculus, oral, 60 min pre-treatment, 0.75% acetic acid i.p.; for Therapeutical index (writhing test): mouse, in vivo, po
Experimental: Method: acetic acid "writhing effect" on mice
To mice weighing 20-25 g. a 0.75% acetic acid solution is administered intraperitoneally in a volume of 20 ml./kg. According to the method of Neubold the characteristic writhing reactions are counted for each animal between the 5th and 10th minute and the total writhing number obtained for this 5 minutes' period is expressed as the percentage of the control group. The test compound is administered orally, the test is carried out by using a pre-treatment period of 60 minutes and 10 animals are used for each dose.

[3] = tested on: Tetrabenazine ptosis; test: Tetrabenazine antagonism on mice (ptosis); format: in vivo; details: for ED50: Mus musculus, oral, 30 min before Tetrabenazine 50 mg./kg. i.p.
Experimental: The test is carried out by the method of Hoffmeister et al. adapted to mice. For each does groups of 10 animals are used. The mice of the test groups are treated orally with the test compound while the controld animals receive the corresponding vehicle p.o. After 30 minutes a 50 mg./kg. i.p. dose of Tetrabenazine is administered. The animals with closed eye-lids are counted after 30, 60, 90 and 120 minutes, respectively, in each group. The average ptosis is calculated on the basis of all measurements in each group and expressed as the percentage of the deviation (ptosis) from the control group.

[4] = tested on: Reserpin ptosis; test: Reserpin ptosis antagonism on mice; format: in vivo; details: for ED50: Mus musculus, sc, 1 h, compound given 60 min after reserpine 6 mg./kg. s.c.
Experimental: The average ptosis is calculated on the basis of all measurements in each group and expressed as the percentage of the deviation (ptosis) from the control group. Groups consisting of 10 mice are used for each does. The animals are treated with a 6 mg./kg. s.c. dose of reserpine, the test compound is administered after 60 minutes. The control animals receive a vehicle. The animals with closed eye-lids are counted in each group after 60 and 120 minutes. The evaluation is carried out as disclosed in the ptosis test No. 3.

[5] = tested on: gastrointestinal peristalsis; test: Antiperistaltic effect on mice (gastrointestinal peristalsis, carbon suspension, method of Stickney et al.); format: in vivo, mice (white, male and female); details: for ED50: Mus musculus, read-out: Antiperistaltic effect ED50; for Therapeutical index (antiperistaltic effect): mouse, in vivo
Experimental: The […] effect is tested according to the method of […] et al. on white male and female mice weighing 20-25 g. […] The groups consist of 10 mice for each dose. The animals of the control group are treated at the same time under identical conditions with a vehicle. Twenty minutes after the administration of the carbon suspension the mice are sacrificed. The total length of the intestines and that of the intestines filled with carbon is measured.

[6] = tested on: Hexobarbital narcosis; test: Hexobarbital narcosis on mice; format: in vivo; details: po; for ED50: Mus musculus, read-out: Hexobarbital narcosis ED50; for Therapeutical index (Hexobarbital narcosis): mouse, in vivo
Experimental: Groups consisting of 6 mice are used for each dose. The animals are treated orally with the test compound (the control group receives a vehicle), whereby sleeping is induced 1 hour later by administering a 40 mg./kg. i.v. dose of Hexobarbital both to the test and control groups.
Animals which have a sleeping time more than 2.5 times longer than that of the control group are considered to show a positive reaction. ED50 values are calculated from the thus-transofrmed data.

[7] = 7 days observation, Litchfield-Wilcoxon
[8] = 60 min before 10% carbon suspension

Cc1n[n+]2c(ccc3ccccc32)[nH]c1=O [Example 21, 2-Methyl-3(4H)-oxo-as-triazino[3,2-a]quinoline-11-ium ethanesulfonate]
LD50 at 168 h [1, 7]: 700 mg/kg

O=c1[nH]c2ccc3ccccc3[n+]2nc1-c1ccccc1 [Example 27, 2-Phenyl-3(4H)-oxo-as-triazino[3,2-a]quinoline-11ium ethanesulfonate]
ED50 [2]: 23.8 mg/kg
Therapeutical index (writhing test) [2]: 42.0

OC1C=N[n+]2ccc3ccccc3c2N1 (stereo not shown) [Example 16, 2-Hydroxy-1,2-dihydro-as-triazino[3,2-a]isoquinolinium ethanesulfonate]
LD50 at 168 h [1, 7]: 650 mg/kg

Cc1n[n+]2ccc3ccccc3c2nc1N1CCOCC1 [Example 34, 2-Morpholino-3-methyl-as-triazino[3,2-a]isoquinolinium ethanesulfonate]
LD50 at 168 h [1, 7]: 1200 mg/kg

Cc1n[n+]2c(ccc3ccccc32)nc1NCCO [Example 24, 2-Methyl-3(2-hydroxyethylamino)as-triazino[3,2-a]quinolinium ethanesulfonate]
LD50 at 168 h [1, 7]: 130 mg/kg

CC(=O)Nc1ccc(O)cc1 [Paracetamol, reference compound]
ED50 [2]: 180 mg/kg

c1ccc2c(c1)cc[n+]1ncc(N3CCOCC3)nc21 [Example 2, 2-Morpholino-as-triazino[3,2-a]isoquinolinium ethanesulfonate]
LD50 at 168 h [1, 7]: 450 mg/kg

CN(C)CCC=C1c2ccccc2CCc2ccccc21 [Amitriptylin, reference compound]
ED50 [3]: 12 mg/kg
Therapeutical index TI (Tetrabenazine ptosis antagonism) [3]: 18.7
ED50 [4]: 65 mg/kg
Therapeutical index TI (Reserpin ptosis antagonism) [4]: 3.5

COc1ccc(Cc2nccc3cc(OC)c(OC)cc23)cc1OC [Papaverin, reference compound]
ED50 [5]: > 280 mg/kg
inhibition (antiperistaltic effect) ([5]; printed beside ED50 above 280 mg./kg.): 36.1%

Cc1n[n+]2ccc3ccccc3c2nc1N [Example 38, 2-Amino-3-methyl-as-triazino[3,2-a]isoquinolinium ethanesulfonate]
LD50 at 168 h [1]: 380 mg/kg
ED50 [3]: 9.2 mg/kg
Therapeutical index TI (Tetrabenazine ptosis antagonism) [3]: 41.3
ED50 [6]: 17 mg/kg
Therapeutical index (Hexobarbital narcosis) [6]: 22.4
ED50 [2]: 65 mg/kg
Therapeutical index (writhing test) [2]: 5.8

Cc1n[n+]2ccc3ccccc3c2nc1NCCO [Example 36, 2-(2-Hydroxyethylamino)-3-methyl-as-triazino[3,2-a]isoquinolinium ethanesulfonate]
LD50 at 168 h [1]: 1400 mg/kg
ED50 [3]: 20 mg/kg
Therapeutical index TI (Tetrabenazine ptosis antagonism) [3]: 70.0

OCCNc1nc2c3ccccc3cc[n+]2nc1-c1ccccc1 [Example 37, 2-(2-Hydroxyethylamino)-3-phenyl-as-triazino[3,2-a]isoquinolinium ethanesulfonate]
LD50 at 168 h [1, 7]: 750 mg/kg

CC1=N[n+]2ccc3ccccc3c2NC1(C)O (stereo not shown) [Example 1, 2,3-Dimethyl-2-hydroxy-1,2-dihydro-as-triazino[3,2-a]isoquinolinium ethanesulfonate]
LD50 at 168 h [1]: 440 mg/kg
ED50 [2]: 60 mg/kg
Therapeutical index (writhing test) [2]: 7.3

CN(C)CCCNc1nc2c3ccccc3cc[n+]2nc1-c1ccccc1 [Example 6, 2-(3-Dimethylaminopropylamino)-3-phenyl-as-triazino[3,2-a]isoquinolinium ethanesulfonate]
LD50 at 168 h [1]: 850 mg/kg
ED50 [6]: 35 mg/kg
Therapeutical index (Hexobarbital narcosis) [6]: 24.3
ED50 [2]: 120 mg/kg
Therapeutical index (writhing test) [2]: 7.1

Cn1c(=O)c(-c2ccccc2)n[n+]2c3ccccc3ccc12 [Example 18, 2-Phenyl-4-methyl-3(4H)-oxo-as-triazino[3,2-a]quinoline-11-ium ethanesulfonate]
LD50 at 168 h [1]: 2000 mg/kg
ED50 [4]: 40 mg/kg
Therapeutical index TI (Reserpin ptosis antagonism) [4]: 50.0

c1ccc(CNc2nc3c4ccccc4cc[n+]3nc2-c2ccccc2)cc1 [Example 8, 2-Benzylamino-3-phenyl-as-triazino[3,2-a]isoquinolinium ethanesulfonate]
LD50 at 168 h [1]: 340 mg/kg
ED50 [4]: 31 mg/kg
Therapeutical index TI (Reserpin ptosis antagonism) [4]: 11.0

Cc1n[n+]2ccc3ccccc3c2nc1NCc1ccccc1 [Example 40, 2-Benzylamino-3-methyl-as-triazino[3,2-a]isoquinolinium ethanesulfonate]
LD50 at 168 h [1]: 90 mg/kg
ED50 [5, 8]: 6.5 mg/kg
Therapeutical index (antiperistaltic effect) [5]: 13.85

CCCC(C)(COC(N)=O)COC(N)=O [Meprobamate, reference compound]
ED50 [6]: 260 mg/kg
Therapeutical index (Hexobarbital narcosis) [6]: 4.2

Cc1n[n+]2c3ccccc3ccc2n(C)c1=O [Example 17, 2,4-Dimethyl-3(4H)-oxo-as-triazino[3,2-a]isoquinoline-11-ium ethanesulfonate]
LD50 at 168 h [1]: 1000 mg/kg
ED50 [4]: 40 mg/kg
Therapeutical index TI (Reserpin ptosis antagonism) [4]: 25.0

O=c1cn[n+]2c(ccc3ccccc32)[nH]1 [Example 26, 3(4H)-Oxo-as-triazino[3,2-a]quinoline-11ium ethanesulfonate]
LD50 at 168 h [1, 7]: 450 mg/kg

Cc1n[n+]2ccc3ccccc3c2[nH]c1=O [Example 9, 3-Methyl-2(1H)-oxo-as-triazino[3,2-a]isoquinolinium-5-ium-ethanesulfonate]
LD50 at 168 h [1]: 900 mg/kg
ED50 [6]: 56 mg/kg
Therapeutical index (Hexobarbital narcosis) [6]: 16.1
ED50 [2]: 107 mg/kg
Therapeutical index (writhing test) [2]: 8.4

Nc1nc2c3ccccc3cc[n+]2nc1-c1ccccc1 [Example 39, 2-Amino-3-phenyl-as-triazino[3,2-a]isoquinolinium ethanesulfonate]
LD50 at 168 h [1, 7]: 500 mg/kg

OCCNc1nc2ccc3ccccc3[n+]2nc1-c1ccccc1 [Example 25, 3-(2-Hydroxyethylamino)-2-phenyl-as-triazino[3,2-a]quinolinium ethanesulfonate]
LD50 at 168 h [1, 7]: 500 mg/kg

Cc1n[n+]2ccc3ccccc3c2nc1NCCCN(C)C [Example 5, 2-(3-Dimethylaminopropylamino)-3-methyl-as-triazino[3,2-a]isoquinolinium ethanesulfonate]
LD50 at 168 h [1, 7]: 2000 mg/kg

OCCNc1cn[n+]2ccc3ccccc3c2n1 [Example 3, 2-(2-Hydroxyethylamino)-as-triazino[3,2-a]isoquinolinium ethanesulfonate]
LD50 at 168 h [1]: 500 mg/kg
ED50 [3]: 50 mg/kg
Therapeutical index TI (Tetrabenazine ptosis antagonism) [3]: 10.0

O=c1nc2c3ccccc3ccn2nc1-c1ccccc1 [Example 11, 3-Phenyl-as-triazino[3,2-a]isoquinoline-2(5H)-one]
LD50 at 168 h [1]: 2000 mg/kg
ED50 [4]: 33 mg/kg
Therapeutical index TI (Reserpin ptosis antagonism) [4]: 60.6
ED50 [5, 8]: ~220 mg/kg
Therapeutical index (antiperistaltic effect) [5]: 9.1
